Experimental data: patent US20100168102A9, “Amide Derivatives as Kinase Inhibitors” (Devgen NV, priority 2005, published 2010)

Legend:
PKC epsilon = target: T1, PKC epsilon (Homo sapiens, UniProt Q02156); assay: Biochemical assay for PKC epsilon (fluorescence polarization, Protein Kinase C Assay Kit, Red); settings: read-out: IC50 μM PKCε
T1 construct: purchased Invitrogen P2282
T1 sequence (Q02156 1-737): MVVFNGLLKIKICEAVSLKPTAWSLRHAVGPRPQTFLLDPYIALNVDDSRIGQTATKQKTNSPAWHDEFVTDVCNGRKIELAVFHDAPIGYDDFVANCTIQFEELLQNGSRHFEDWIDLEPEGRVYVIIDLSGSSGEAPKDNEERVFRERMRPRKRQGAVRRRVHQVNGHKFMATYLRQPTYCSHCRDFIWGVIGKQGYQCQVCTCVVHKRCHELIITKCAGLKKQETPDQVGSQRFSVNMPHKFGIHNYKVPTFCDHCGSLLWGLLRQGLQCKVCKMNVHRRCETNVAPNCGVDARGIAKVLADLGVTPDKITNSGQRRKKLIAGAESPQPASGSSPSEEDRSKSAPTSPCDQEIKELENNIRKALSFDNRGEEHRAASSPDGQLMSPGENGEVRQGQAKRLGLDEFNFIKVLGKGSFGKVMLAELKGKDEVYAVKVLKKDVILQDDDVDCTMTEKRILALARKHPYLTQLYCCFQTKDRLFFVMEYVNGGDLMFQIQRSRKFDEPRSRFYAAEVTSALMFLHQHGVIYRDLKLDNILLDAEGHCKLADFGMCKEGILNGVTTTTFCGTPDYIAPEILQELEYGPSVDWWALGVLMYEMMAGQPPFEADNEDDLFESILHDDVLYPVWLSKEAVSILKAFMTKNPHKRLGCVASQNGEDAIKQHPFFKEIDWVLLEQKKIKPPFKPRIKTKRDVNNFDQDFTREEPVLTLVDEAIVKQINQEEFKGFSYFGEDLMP
Method in brief: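 PKC epsilon at 10 ng/ml final was preincubated 30 min at room temperature with compound in HEPES pH 7.4 with DTT and Triton X-100. ATP/protein substrate was then added in buffer with MgCl2 and CaCl2 for 80 min. The reaction was stopped with EDTA, phosphorylation was detected by fluorescence polarization with rhodamine tracer and anti-phosphoserine antibody, and IC50 values came from curve fits.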

human ROCKα/ROCKII mix = target: T2, human ROCKα/ROCKII mix (Homo sapiens, UniProt O75116); assay: Biochemical assay for ROCK (fluorescence polarization, ROCK IMAP Kit)
T2 construct: purchased Upstate Biotechnology 14-451
T2 sequence (O75116 11-552 limits assumed): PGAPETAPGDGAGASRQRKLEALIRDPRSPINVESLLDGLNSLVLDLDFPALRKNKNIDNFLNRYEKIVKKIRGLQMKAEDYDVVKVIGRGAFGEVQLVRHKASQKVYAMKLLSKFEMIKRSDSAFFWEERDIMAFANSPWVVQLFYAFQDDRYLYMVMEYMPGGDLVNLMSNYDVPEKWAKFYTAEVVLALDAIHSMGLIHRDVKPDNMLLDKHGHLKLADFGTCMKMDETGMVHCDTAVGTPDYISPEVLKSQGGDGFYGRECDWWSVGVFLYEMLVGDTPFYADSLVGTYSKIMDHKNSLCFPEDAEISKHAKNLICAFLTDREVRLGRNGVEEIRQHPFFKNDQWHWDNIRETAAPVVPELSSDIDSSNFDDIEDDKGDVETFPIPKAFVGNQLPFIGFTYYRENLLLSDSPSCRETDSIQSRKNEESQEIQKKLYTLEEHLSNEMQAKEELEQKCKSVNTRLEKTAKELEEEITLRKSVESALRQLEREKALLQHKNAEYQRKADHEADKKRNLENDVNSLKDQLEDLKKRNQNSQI

Row | IC50 (PKC epsilon) | IC50 (human ROCKα/ROCKII mix) | Structure (SMILES)
1 | 5 to 50 µM | 0.5 to 5 µM | CN(CC(N)c1ccc(C(=O)Nc2ccncc2)cc1)C(=O)Cc1c(F)cccc1Cl (centres unmarked) [Compound 496, 4-(1-Amino-2-{[2-(2-chloro-6-fluoro-phenyl)-acetyl]-methyl-amino}-ethyl)-N-pyridin-4-yl-benzamide]
2 | 5 to 50 µM | 0.5 to 5 µM | CN(CC(N)c1ccc(C(=O)Nc2ccncc2)cc1)C(=O)Cc1ccc(F)cc1Cl (centres unmarked) [Compound 498, 4-(1-Amino-2-{[2-(2-chloro-4-fluoro-phenyl)-acetyl]-methyl-amino}-ethyl)-N-pyridin-4-yl-benzamide]
3 | 5 to 50 µM | 0.5 to 5 µM | CN(CC(N)c1ccc(C(=O)Nc2ccncc2)cc1)C(=O)Cc1cccc(Cl)c1F (centres unmarked) [Compound 501, 4-(1-Amino-2-{[2-(3-chloro-2-fluoro-phenyl)-acetyl]-methyl-amino}-ethyl)-N-pyridin-4-yl-benzamide]
4 | 5 to 50 µM | 0.5 to 5 µM | CN(CC(N)c1ccc(C(=O)Nc2ccncc2)cc1)C(=O)Cc1ccc(Cl)cc1F (centres unmarked) [Compound 502, 4-(1-Amino-2-{[2-(4-chloro-2-fluoro-phenyl)-acetyl]-methyl-amino}-ethyl)-N-pyridin-4-yl-benzamide]
5 | 0.5 to 5 µM | 0.5 to 5 µM | CN(CC(N)c1ccc(C(=O)Nc2ccncc2)cc1)C(=O)C1(c2ccc(Cl)cc2F)CC1 (centres unmarked) [Compound 504, 4-(1-Amino-2-{[1-(4-chloro-2-fluoro-phenyl)-cyclopropanecarbonyl]-methyl-amino}-ethyl)-N-pyridin-4-yl-benzamide]
6 | 5 to 50 µM | 0.5 to 5 µM | CN(CC(N)c1ccc(C(=O)Nc2ccncc2)cc1)C(=O)C(C)(C)c1ccc(F)c(Cl)c1 (centres unmarked) [Compound 505, 4-(1-Amino-2-{[2-(3-chloro-4-fluoro-phenyl)-2-methyl-propionyl]-methyl-amino}-ethyl)-N-pyridin-4-yl-benzamide]
7 | 5 to 50 µM | 0.5 to 5 µM | CN(CC(N)c1ccc(C(=O)Nc2ccncc2)cc1)C(=O)C1(c2ccc(F)c(Cl)c2)CC1 (centres unmarked) [Compound 506, 4-(1-Amino-2-{[1-(3-chloro-4-fluoro-phenyl)-cyclopropanecarbonyl]-methyl-amino}-ethyl)-N-pyridin-4-yl-benzamide]
8 | 5 to 50 µM | 0.5 to 5 µM | CN(CC(N)c1ccc(C(=O)Nc2ccncc2)cc1)C(=O)C1CCCc2ccccc21 (centres unmarked) [Compound 512, 1,2,3,4-Tetrahydro-naphthalene-1-carboxylic acid {2-amino-2-[4-(pyridin-4-ylcarbamoyl)-phenyl]-ethyl}-methyl-amide]
9 | 5 to 50 µM | 0.5 to 5 µM | CN(CC(N)c1ccc(C(=O)Nc2ccncc2)cc1)C(=O)C1CCOc2ccc(Cl)cc21 (centres unmarked) [Compound 515, 6-Chloro-chroman-4-carboxylic acid {2-amino-2-[4-(pyridin-4-ylcarbamoyl)-phenyl]-ethyl}-methyl-amide]
10 | 5 to 50 µM | 0.5 to 5 µM | CN(CC(N)c1ccc(C(=O)Nc2ccncc2)cc1)C(=O)C1CCOc2ccc(F)cc21 (centres unmarked) [Compound 516, 6-Fluoro-chroman-4-carboxylic acid {2-amino-2-[4-(pyridin-4-ylcarbamoyl)-phenyl]-ethyl}-methyl-amide]
11 | 5 to 50 µM | 5 to 50 µM | CN(CC(N)c1ccc(C(=O)Nc2ccncc2)cc1)C(=O)C1CCSc2ccccc21 (centres unmarked) [Compound 517, Thiochroman-4-carboxylic acid {2-amino-2-{4-(pyridin-4-ylcarbamoyl)-phenyl]-ethyl}-methyl-amide]
12 | 5 to 50 µM | 5 to 50 µM | CN(CC(N)c1ccc(C(=O)Nc2ccncc2)cc1)C(=O)C1CCSc2ccc(F)cc21 (centres unmarked) [Compound 518, 6-Fluoro-thiochroman-4-carboxylic acid {2-amino-2-[4-(pyridin-4-ylcarbamoyl)-phenyl]-ethyl}-methyl-amide]
13 | 5 to 50 µM | 0.5 to 5 µM | CN(CC(N)c1ccc(C(=O)Nc2ccncc2)cc1)C(=O)C1CCCc2sccc21 (centres unmarked) [Compound 520, 4,5,6,7-Tetrahydro-benzo[b]thiophene-4-carboxylic acid {2-amino-2-[4-(pyridin-4-ylcarbamoyl)-phenyl]-ethyl}-methyl-amide]
